Assay results published in patent US10874103B2, “Antibacterial composition comprising an acetal or a long-chain alkyl hexitane ether” (TEREOS STARCH & SWEETENERS BELGIUM, priority 2014, dated 2020).
Converted amounts (≈) assume the structure as drawn.

Legend:
[1] = tested on: E. faecalis (ATCC® 29212™); assay: MIC, 96-well microplate microdilution (Example 4); assay type: cell-based; conditions: 18 h at 37° C.; for MIC: Enterococcus faecalis, ATCC29212, Mueller-Hinton medium, read-out: Minimum inhibitory concentration (MIC) E. faecalis
Procedure: (§1) The bacteriostatic properties of the derivatives are evaluated by measuring their minimum inhibitory concentration (MIC) on the bacteria tested. Such a measurement is made using the 96-well microplate microdilution method according to the conditions defined below.
(§2) The minimum inhibitory concentrations (MIC) are tested on Gram-positive bacterial strains according to the recommendations of the “Clinical Laboratory Standards Institute” (Clinical-Laboratory-Standards-Institute, 6th ed. Approved standard M100-S17. CLSI, Wayne, Pa., 2007).
(§3) The Gram-positive bacteria studied are as follows: L. monocytogenes (CIP 103575), E. faecalis (ATCC® 29212™) and S. aureus (ATCC® 292213™).
(§4) The cultures studied, freshly isolated (after incubation on a blood agar at 37° C. for 18 h), are taken up in sterile water (10 mL) until a 0.5 McFarland (Mc) suspension i.e. 1 to 2×10^8 CFU (bacteria)/cm^3 is obtained. The bacterial suspension was then diluted to obtain a final concentration of 5×10^5 CFU/cm^3.
(§5) Each well contains an identical quantity of Mueller-Hinton medium (a rich medium for bacterial culture) and bacteria with final 5×10^5 CFU/cm^3.
(§6) The test compounds of interest are solubilized in 2.5% m of ethanol before being diluted to different concentrations two by two.
(§7) On the multiwell plate, a first series has been planned comprising the culture medium without the test compound of interest. It corresponds to the growth control (control well). These controls serve as reference for comparing bacterial growth with that of the subsequent wells comprising different concentrations of the test compound of interest. The second series of wells comprises the mother solution for the test compound of interest for a concentration in the wells of 4 mM. Each series of wells was diluted two by two until the last series for a final concentration of 0.003 mM. Each concentration is duplicated in the same plate. The plate is incubated for 18 h at 37° C. […] If there is antibacterial activity, the bacterial growth is inhibited, which means that no turbidity or bacterial residue is present.
(§8) Tests have been conducted on Gram-positive bacteria with sorbitan derivatives. […] After sterilization the solutions are diluted in water. The results obtained for antimicrobial tests on the 3 bacterial strains L. monocytogenes (CIP 103575), E. faecalis (ATCC® 29212™) and S. aureus (ATCC® 292213™) are summarized in Table 1.

[2] = tested on: L. monocytogenes (CIP 103575); assay: MIC, 96-well microplate microdilution (Example 4); assay type: cell-based; conditions: 18 h at 37° C.; for Minimum inhibitory concentration (MIC) L. monocytogenes: Mueller-Hinton medium; for MIC: Listeria monocytogenes, CIP103575, Mueller-Hinton medium, read-out: Minimum inhibitory concentration (MIC) L. monocytogenes
Procedure: as §1, §2, §3, §4, §5, §6, §7, §8

[3] = tested on: S. aureus (ATCC® 292213™); assay: MIC, 96-well microplate microdilution (Example 4); assay type: cell-based; conditions: for Minimum inhibitory concentration (MIC) S. aureus / MIC: ATCC 292213, Mueller-Hinton medium, 18 h at 37° C.; for MIC: Staphylococcus aureus, ATCC292213, read-out: Minimum inhibitory concentration (MIC) S. aureus
Procedure: as §1, §2, §3, §4, §5, §6, §7, §8

[4] = tested on: E. faecalis (ATCC® 29212™); assay: MBC, bacterial count from clear wells reseeded on agar (Example 5); assay type: cell-based
Procedure: (§9) To determine whether the agents tested are bactericidal, the minimum bactericidal concentration (MBC) is determined. The MBC corresponds to the concentration leaving a number of bacterial survivors of <4 log. For this, a bacterial count is run from clear wells or without bacterial residue (C≤MIC). To do this, a dilution to 1/100 was conducted with the two wells with the same concentration before seeding on a blood agar using the Spiral technique. After 24 h of incubation at 37° C., the visual count allowed determination of the minimum concentration from which there is no bacterial growth.
(§10) To determine the bactericidal effect of compounds presenting bacteriostatic properties, the wells no longer presenting turbidity were reseeded on agar.

[5] = tested on: L. monocytogenes (CIP 103575); assay: as above; assay type: cell-based
Procedure: as §9, §10

[6] = Critical micelle concentration (surfactant properties, Example 6); assay type: physicochemical
Text: The physical, chemical and antimicrobial properties for the best products synthesized have been tested. These analyses show the different surfactant profiles, and the minimum inhibitory concentrations (MIC) for each compound on Gram-positive bacteria. The best surfactant and antimicrobial results are compared in Table 3.

[7] = tested on: L. monocytogenes (CIP 103575), E. faecalis (ATCC® 29212™) and S. aureus (ATCC® 292213™); assay: MIC microdilution, statements for all three Gram-positive strains together; assay type: cell-based
Procedure: as §1, §2, §3, §4, §5, §6
On the multiwell plate, a first series has been planned comprising the culture medium without the test compound of interest. […]

Row | Molecule | MIC [1] [mM] | MIC [2] [mM] | MIC [3] [mM] | also measured
1 | 5,6-O-Dodecylidene-1,4-D-sorbitan 1e and 1e′ and 3,5-O-dodecylidene-1,4-D-sorbitan 1e′ and 1e′″ [Example 1e] |  |  |  | Minimum inhibitory concentration (MIC) E. faecalis ([1]; Mueller-Hinton medium): 0.03 mmol/L; Minimum inhibitory concentration (MIC) L. monocytogenes [2]: 0.03 mmol/L; bacteriostatic concentration for S. aureus [3]: 0.12 mM; Minimum inhibitory concentration (MIC) S. aureus [3]: 0.12 mmol/L; bactericidal concentration for E. faecalis [4]: 0.03 mM; minimum bactericidal concentration (MBC) E. faecalis ([4]; Table 2, reseeded on agar): 0.03 mmol/L; bactericidal concentration for L. monocytogenes [5]: 0.03 mM; minimum bactericidal concentration (MBC) L. monocytogenes ([5]; Table 2, reseeded on agar): 0.03 mmol/L; CMC (critical micelle concentration) [6]: 0.034 mM
2 | CCCCC1OCC([C@H]2OCC(O)C2O)O1 (stereo partly drawn) [Example 1a, 5,6-O-Pentylidene-1,4-D-sorbitan 1a and 1a′ and 3,5-O-pentylidene-1,4-D-sorbitan 1a″ and 1a′″] | > 4 | > 4 | > 4 | 
3 | CCCCCC1OCC([C@H]2OCC(O)C2O)O1 (stereo partly drawn) [Example 1b, 5,6-O-Hexylidene-1,4-D-sorbitan 1b and 1b′ and 3,5-O-hexylidene-1,4-D-sorbitan 1b″ and 1b′″] | > 4 | > 4 | > 4 | 
4 | CCCCCCCC1OCC([C@H]2OCC(O)C2O)O1 (stereo partly drawn) [Example 1c, 5,6-O-Octylidene-1,4-D-sorbitan 1c and 1c′ and 3,5-O-octylidene-1,4-D-sorbitan 1c″ and 1c′″] | > 4 | > 4 | > 4 | 
5 | CCCCCCCCCC1OCC([C@H]2OCC(O)C2O)O1 (stereo partly drawn) [Example 1d, 5,6-O-Decylidene-1,4-D-sorbitan 1d and 1d′ and 3,5-O-decylidene-1,4-D-sorbitan 1d′ and 1d′″] | > 4 | > 4 | > 4 | 
6 | CCCCCOCC(O)[C@H]1OCC(O)C1O (stereo partly drawn) [Example 2a, Pentyl-1,4-D-sorbitan] | > 4 | > 4 | > 4 | 
7 | CCCCCCOCC(O)[C@H]1OCC(O)C1O (stereo partly drawn) [Example 2b, Hexyl-1,4-D-sorbitan] | > 4 | > 4 | > 4 | 
8 | CCCCCCCCOCC(O)[C@H]1OCC(O)C1O (stereo partly drawn) [Example 2c, Octyl-1,4-D-sorbitan] | > 4 | > 4 | > 4 | 
9 | CCCCCCCCCCOCC(O)[C@H]1OCC(O)C1O (stereo partly drawn) [Example 2d, Decyl-1,4-d-sorbitan] | > 4 | > 4 | > 4 | 
10 | CCCCCCCCCCCC(=O)OCC(O)CO (stereo not drawn) [Monolaurin (ML), monolaurin, reference compound] |  |  |  | Minimum inhibitory concentration (MIC) L. monocytogenes [2]: 0.04 mmol/L (≈ 11 µg/mL); Minimum inhibitory concentration (MIC) S. aureus [3]: 0.04 mmol/L (≈ 11 µg/mL)
11 | CCCCCCCCCCCC=O [dodecanal, reference compound] |  |  |  | MIC / inhibitory concentration on the bacterial strains studied [7]: > 4 mM
